Counter-ions that a name gives are not always drawn. Like-named read-outs stand apart in the source and are kept apart here.
What was measured:
Sprague–Dawley rats [1] = assay: Prepulse inhibition; assay type: in vivo, rat
Sprague–Dawley rats [2] = assay: Acoustic startle: startle magnitude; assay type: in vivo, rat
[3] = 5-MeO-DMT and bufotenine levels in whole brain by LC-ESI-SRM-MS/MS; assay type: in vivo, rat; conditions: for Cmax: rat, whole brain, sc, 1 mg/kg, Cmax of 5-MeO-DMT in whole brain
5-HT2A [4] = conditions: cited from earlier work
5-HT uptake = conditions: ref Berge et al. 1983; Chang et al. 1993; Nagai et al. 2007; cited from earlier work
[5] = 10 mg/kg IP; ref Sitaram et al. 1987; cited from earlier work
Sprague–Dawley rats [6] = assay: Behavioral Pattern Monitor locomotor activity; assay type: in vivo, rat; conditions: 5-MeO-DMT 1 mg/kg SC, clorgyline 0.3 mg/kg pretreatment; fifth 10-min time block, p<0.05
[7] = 5-MeO-DMT and bufotenine levels in plasma by LC-ESI-SRM-MS/MS; assay type: in vivo, rat; conditions: for AUC / Cmax: rat, plasma, sc, 1 mg/kg, 1 mg/kg SC; for AUC: plasma AUC20→70 min for 5-MeO-DMT, trapezoidal rule; for Cmax: plasma Cmax of 5-MeO-DMT
5-HT2A [8] = conditions: rats; ref Bedard and Pycock 1977; Matthews and Smith 1980; cited from earlier work
[9] = after SC administration of 1 mg/kg
[10] = clorgyline 0.3 mg/kg pretreatment

## COc1ccccc1N1CCN(CCN(C(=O)C2CCCCC2)c2ccccn2)CC1.O=C(O)/C=C\C(=O)O [WAY-100635, N-[2-[4-(2-methoxyphenyl)-1-piperazinyl]ethyl]-N-2-pyridinylcyclohexanecarboxamide maleate]
Sprague–Dawley rats [1]; WAY-100,635 1 mg/kg pretreatment, p<0.01, Tukey's test
  Effect of pretreatment on reduction of PPI produced by 10 mg/kg pargyline and 1 mg/kg 5-MeO-DMT: significantly antagonized
Sprague–Dawley rats [2]; WAY-100635 1.0 mg/kg SC pretreatment, vehicle treatment, experiment 3, n=10
  Startle magnitude (mean±SEM): 271.30±51.26
Sprague–Dawley rats [2]; WAY-100635 1.0 mg/kg pretreatment, pargyline 10 + 5-MeO-DMT 1.0 mg/kg, experiment 3, n=10
  Startle magnitude (mean±SEM): 172.03±47.00

## OC(c1ccccc1)C1CCN(CCc2ccccc2)CC1 (stereo not drawn) [MDL 11,939, α-Phenyl-1-(2-phenylethyl)-4-piperidinemethanol]
Sprague–Dawley rats [1]; MDL 11,939 0.3 mg/kg pretreatment, p<0.01, Tukey's test
  Effect of pretreatment on ability of pargyline and 5-MeO-DMT to reduce PPI: significantly attenuated
Sprague–Dawley rats [2]; MDL 11,939 0.3 mg/kg pretreatment, pargyline 10 + 5-MeO-DMT 1.0 mg/kg, experiment 3, n=10
  Startle magnitude (mean±SEM): 419.79±48.30

## C#CCN(C)CCCOc1ccc(Cl)cc1Cl.Cl [Clorgyline, N-methyl-N-propargyl-3-(2,4-dichlorophenoxy)-propylamine HCl]
Sprague–Dawley rats [2]; clorgyline 0.3 mg/kg SC pretreatment, vehicle treatment, experiment 2, n=12
  Startle magnitude (mean±SEM): 422.31±78.47

## COc1ccc2[nH]cc(CCN(C)C)c2c1 [5-MeO-DMT, 5-Methoxy-N,N-dimethyltryptamine]
[3]; 1 mg/kg SC, no MAO inhibitor
  peak level of 5-MeO-DMT in the brain: 144.3 nM
[3]; [9]
  time at which level of 5-MeO-DMT in brain peaked: ≤ 20 min
[3]; 1 mg/kg SC, clorgyline 0.3 mg/kg pretreatment
  Cmax: 634 ± 146 ng/g
[3]; 1 mg/kg SC, vehicle pretreatment
  Cmax: 30.3 ± 11.2 ng/g
5-HT2A [4]; ref Blair et al. 2000, Parrish and Nichols 2006
  concentration of 5-MeO-DMT required to activate 5-HT2A: low micromolar range
5-HT2A [4]; ref Newton et al. 1996, Rabin et al. 2002, Kurrasch-Orbaugh et al. 2003, Strachan et al. 2010
  concentration of 5-MeO-DMT required to activate 5-HT2A: several hundred nanomolar
5-HT uptake
  concentrations inhibiting 5-HT uptake: low micromolar concentrations
[5]
  increase of 5-MeO-DMT blood levels by iproniazid: 40 fold
  increase of 5-MeO-DMT brain levels by iproniazid: ~100 fold
Sprague–Dawley rats [1]; 5-MeO-DMT 1.0 mg/kg SC in animals pretreated with clorgyline 0.3 mg/kg, 45 min, all three prepulse intensities, p<0.01
  Effect on PPI: significantly reduced PPI
Sprague–Dawley rats [1]; 5-MeO-DMT 1 mg/kg SC in animals pretreated with pargyline 10 mg/kg, 45 min, all three prepulse intensities, p<0.01
  Effect on PPI: significantly reduced PPI
Sprague–Dawley rats [1]; 5-MeO-DMT 1.0 mg/kg SC, saline-pretreated animals, 45 min, experiment 2
  Effect on PPI: did not alter PPI
Sprague–Dawley rats [1]; 5-MeO-DMT 0.1 or 1.0 mg/kg SC, saline-pretreated animals, tested 45 min post-injection, experiment 1
  Effect on PPI: did not alter PPI
Sprague–Dawley rats [2]; clorgyline 0.3 mg/kg pretreatment, 5-MeO-DMT 1.0 mg/kg SC, 45 min, experiment 2, n=12
  Startle magnitude (mean±SEM): 544.45±62.88
Sprague–Dawley rats [2]; vehicle pretreatment, 5-MeO-DMT 0.1 mg/kg SC, tested 45 min post-injection, experiment 1, n=10
  Startle magnitude (mean±SEM): 180.58±37.92
Sprague–Dawley rats [2]; vehicle pretreatment, 5-MeO-DMT 1.0 mg/kg SC, 45 min, experiment 1, n=10
  Startle magnitude (mean±SEM): 274.12±56.96
Sprague–Dawley rats [6]
  Crossings (locomotor activity) versus vehicle pretreatment: significantly more crossings
[7]; [9]
  time at which level of 5-MeO-DMT in plasma peaked: ≤ 20 min
[7]; [10]
  AUC: 31.4 ± 2.3 ng·h/mL
  Cmax: 78.1 ± 9.5 ng/mL
[7]; vehicle pretreatment
  AUC: 12.2 ± 1.7 ng·h/mL
  Cmax: 52.7 ± 11.8 ng/mL
5-HT2A [8]
  doses eliciting the head twitch response (HTR): 0.2 to 1 mg/kg

## C#CCN(C)Cc1ccccc1 [Pargyline, pargyline HCl]
Sprague–Dawley rats [1]; pargyline 10 mg/kg alone compared with vehicle pretreatment
  Effect on PPI: did not significantly reduce PPI
Sprague–Dawley rats [2]; pargyline 10 mg/kg SC pretreatment, vehicle treatment, experiment 1, n=10
  Startle magnitude (mean±SEM): 167.66±22.30
